Structures can show the parent of a compound that is named as a salt.
Columns and labels:
[1] = system: ventricular muscle refractory period; experiment: Influence on ventricular muscle refractory period (ERP); type: in vivo, dog (mongrel adult dog); settings: Canis lupus familiaris, iv, i.v., anesthetized dog, change vs before administration, read-out: ERP (%; extensibility of refractory period)
Protocol: (2) Influence on ventricular muscle refractory period:
Refractory periods were measured in the following manner before and after each of the compounds and d-sotalol shown in Table 1 was separately administered to a vein or a duodenum, and ERP (%; extensibility of refractory period) was calculated from the measured values in accordance with the following formula: […]
W: Refractory period after administration
Y: Refractory period before administration
To a mongrel adult dog, 30 mg/kg of pentobarbital was administered intravenously, and after being anesthetized, a pair of silver-silver chloride electrodes separated by 3 mm was sewn on an opened right ventricule, and electrical stimulation was given at an interval of 400 msec at a duration time of 4 msec under a current twice as much as the threshold. Afterward, a small amount of alcohol was injected into a sinus artery in order to extinguish a pacemaker activity, and the ventricular refractory period (ERP) was measured under ventricule pacing.
That is, 1 train comprised 10 stimulations, and an interval between two of the trains was usually 400 msec. At the time of the refractory period measurement, however, the above interval was shortened every 10 smec, and the interval between the trains at the time when reaction to the first stimulation of the train disappeared was regarded as the refractory period.
In this case, the electrical stimulation was fed in accordance with a program by a heart stimulation device (Diamedical Co., Ltd.; DHM-226-3).

[2] = system: Purkinje fiber of the right ventricular free wall; experiment: Influence on myocardial action potential duration time (APD75), isolated right ventricular free wall; set-up: species or system dog (hybrid adult dog); settings: Canis lupus familiaris, 20 min, 20 minutes' incubation; for APD75 prolongation (% change vs before administration) at 1 µg/mL: dose 1.0 μg/ml; for APD75 prolongation (% change vs before administration) at 3 µg/mL: dose 3.0 μg/ml; for APD75 prolongation (% change vs before administration) at 10 µg/mL: dose 10.0 μg/ml
Protocol: (1) Influence on myocardial action potential duration time (APD75): To a hybrid adult dog, 30 mg/kg of pentobarbital was administered through a vein, and after being anesthetized, the heart was removed. Afterward, the right ventricular free wall of the heart was cut and taken out in a Tyrode solution. […] In this isolated condition, myocardial action potential duration times (APD75) were measured before and after the administration of the respective compounds prepared in the above examples in Table 1 and d-sotalol as a control medicine, and APD75 (%) was calculated from the measured results in accordance with the formula: APD75 (%)=([…]75 before administration B: APD75 after administration Here, APD75 was measured as follows: […] This measured time was regarded as the myocardial action potential duration time (APD75). […] Incidentally, this test was carried out in accordance with a Sato et al's method [H. Sato, K. Hashimoto, Arzneimeittel Forschung, 34 (1), 3a, 376-380 (1984)].

[3] = Toxicity test, mortality 24 hours after oral administration; settings: mouse, in vivo, 300 mg/kg p.o., mice, 24 hours after administration, read-out: Mortality Rate (%)
Protocol: Each of the compounds prepared in the above-mentioned examples shown in Table 2 was administered into a mouse (ddy strain, male). In each case, the administration was effected by oral administration (p.o.) in a dose of 300 mg/kg.
A mortality rate (number of specimens: one group=2 to 4 mice) of the mice 24 hours after the administration was calculated, and the results are set forth in Table 2.

Structure (SMILES)	change in vivo at 0.1 mg/kg [1] [%]	change in vivo at 0.3 mg/kg [1] [%]	change in vivo at 1 mg/kg [1] [%]	change in vivo at 3 mg/kg [1] [%]	APD75 prolongation (% change vs before administration) at 1 µg/mL [2] [%]	APD75 prolongation (% change vs before administration) at 3 µg/mL [2] [%]	mortality at 24 h [3] [%]	APD75 prolongation (% change vs before administration) at 10 µg/mL [2] [%]	APD75 prolongation (% change vs before administration) at 0.3 µg/mL ([2]; dose 0.3 μg/ml) [%]
Cn1c(N2CCN(CCCOc3ccc4c(=O)cc(-c5ccccc5)oc4c3)CC2)cc(=O)n(C)c1=O [Compound 48, 1,3-Dimethyl-6-(4-[3-(2-phenyl-4-oxo-4H-1-benzopyran-7-yl)oxypropyl]piperazine-1-yl)-2,4(1H,3H)-pyrimidinedione oxalate]	0	0	6.9	20.4	7	12			
CCN(CCCOc1cccc2occ(C)c(=O)c12)CCNc1cc(=O)n(C)c(=O)n1C [Compound 14, 1,3-dimethyl-6-(2-[N-ethyl-N-[3-(3-methyl-4-oxo-4H-1-benzopyran-5-yl)oxypropyl]amino[ethylamino)-2,4(1H,3H)-pyrimidinedione oxalate]	6.8	6.8	10.7	13.6	4	17	0	25	
CCOC(=O)c1cc(=O)c2ccc(OCCCN3CCN(c4cc(=O)n(C)c(=O)n4C)CC3)cc2o1 [Compound 50, 1,3-Dimethyl-6-(4-[3-(2-ethoxycarbonyl-4-oxo-4H-1-benzopyran-7-yl)oxypropyl]piperazine-1-yl)-2,4-(1H,3H)-pyrimidinedione oxalate]	0	0	0	6.3	7	14		28	
Cn1c(N2CCN(CCCOc3cccc4oc(-c5ccccc5)cc(=O)c34)CC2)cc(=O)n(C)c1=O [Compound 39, 1,3-Dimethyl-6-(4-[3-(2-phenyl-4-oxo-4H-1-benzopyran-5-yl)oxypropyl]piperazine-1-yl)-2,4(1H,3H)-pyrimidinedione oxalate]	7.1	14.3	14.3	14.3	7	20	0		
Cc1cc(=O)c2c(OCCCN3CCN(c4cc(=O)n(C)c(=O)n4C)CC3)cccc2o1 [Compound 40, 1,3-Dimethyl-6-(4-[3-(2-methyl-4-oxo-4H-1-benzopyran-5-yl)oxypropyl-piperazine-1-yl)-2,4(1H,3H)-pyrimidinedione hydrochloride]	6.9	10.3	13.9	17.4	18	25	0	29	
CC(C)NCC(O)c1ccc(NS(C)(=O)=O)cc1 (stereo not drawn) [d-sotalol, reference compound]	1.7	6.7	8.7	15.5	3	7.4		15.8	0
Cn1c(N2CCN(CCCOc3cccc4oc(-c5ccncc5)cc(=O)c34)CC2)cc(=O)n(C)c1=O [Compound 25, 1,3-dimethyl-6-(4-[3-[2-(pyridine-4-yl)-4-oxo-4H-1-benzopyran-5-yl]oxypropyl]piperazine-1-yl)-2,4(1H,3H)-pyrimidinedione dihydrochloride]	6.3	6.7	12.5		7	19	0	27	
Cc1coc2cccc(OCCCN3CCN(c4cc(=O)n(C)c(=O)n4C)CC3)c2c1=O [Compound 4, 1,3-dimethyl-6-(4-[3-(3-methyl-4-oxo-4H-1-benzopyran-5-yl)oxypropyl]piperazine-1-yl)-2,4(1H,3H)-pyrimidinedione hydrochloride]	6.3	12.5	12.5	25	24	30	0		
Cn1c(N2CCN(CCCOc3cccc4c3C(=O)CC(c3ccccc3)O4)CC2)cc(=O)n(C)c1=O (stereo not drawn) [Compound 21, 1,3-dimethyl-6-(4-[3-(2-phenyl-4-oxo-2,3-dihydro-4H-1-benzopyran-5-yl)oxypropyl]piperazine-1-yl)-2,4(1H,3H)-pyrimidinedione oxalate]	0	0	0	7.7	12	16	0	20	
Cc1oc2cccc(OCCCN3CCN(c4cc(=O)n(C)c(=O)n4C)CC3)c2c(=O)c1C [Compound 7, 1,3-dimethyl-6-(4-[3-(2,3-dimethyl-4-oxo-4H-1-benzopyran-5-yl)oxypropyl]piperazine-1-yl)-2,4(1H,3H)-pyrimidinedione oxalate]	12	18	18	24	25	31	0		
Cn1c(N2CCN(CCCOc3cccc4occc(=O)c34)CC2)cc(=O)n(C)c1=O [Compound 38, 1,3-Dimethyl-6-(4-[3-(4-oxo-4H-1-benzopyran-5-yl)oxypropyl]pyperazine-1-yl)-2,4(1H,3H)-pyrimidinedione hydrochloride]	4.5	9.3	16	16	10	20	0	39	

From US5114941A, “Pyrimidinedione derivative compounds, method for preparing same, and antiarrythmic agents containing same” (Mitsui Toatsu Chemicals, Incorporated, priority 1989, dated 1992)
